This is an account of results in ChEMBL document CHEMBL3997783, “Synthesis and anti-acute myeloid leukemia activity of C-14 modified parthenolide derivatives” (Eur J Med Chem, 2017).

The test system of test [1] is KG-1a. Kind of test: Cytotoxicity against human KG1a cells assessed as decrease in cell proliferation after 48 hrs by MTT assay. The test is classed as functional, cell-based. A general note: Tetrazolium assays rely on reduction of a dye to a coloured formazan, in cell work by metabolically active cells.
For another test, the system named is HL-60. As to the kind of experiment: Cytotoxicity against human HL60 cells assessed as decrease in cell proliferation after 48 hrs by MTT assay. The test is classed as functional, cell-based. The following applies: HL-60, 48 h.
The nature of test [2]: Selectivity ratio of IC50 for human KG1a cells to IC50 for human HL60 cells. The test is classed as functional.
For test [3], the system named is KG-1a. Kind of test: Induction of apoptosis in human KG1a cells assessed as viable cells at 20 uM after 16 hrs by annexin V-FITC/propidium iodide staining-based flow cytometric method (reference value: 98.7%). The test is classed as functional. The following applies: read-out: Activity.
In test [4] the test system is KG-1a. Kind of test: Induction of apoptosis in human KG1a cells assessed as late apoptotic cells at 10 uM after 16 hrs by annexin V-FITC/propidium iodide staining-based flow cytometric method (reference value: 1.01%). The test is classed as functional.
The subject of test [5] is KG-1a. As to the kind of experiment: Induction of apoptosis in human KG1a cells assessed as viable cells at 10 uM after 16 hrs by annexin V-FITC/propidium iodide staining-based flow cytometric method (reference value: 98.7%). The test is classed as functional. The following applies: read-out: Activity.
The subject of test [6] is KG-1a. Kind of test: Induction of apoptosis in human KG1a cells assessed as necrotic cells at 20 uM after 16 hrs by annexin V-FITC/propidium iodide staining-based flow cytometric method (reference value: 0.170%). The test is classed as functional. In general terms: In flow cytometry, cells or beads pass a laser one at a time.
Test [7] has as its system KG-1a. As to the kind of experiment: Induction of apoptosis in human KG1a cells assessed as necrotic cells at 10 uM after 16 hrs by annexin V-FITC/propidium iodide staining-based flow cytometric method (reference value: 0.170%). The test is classed as functional.
The subject of test [8] is KG-1a. Kind of test: Induction of apoptosis in human KG1a cells assessed as late apoptotic cells at 20 uM after 16 hrs by annexin V-FITC/propidium iodide staining-based flow cytometric method (reference value: 1.01%). The test is classed as functional.
In test [9] the test system is KG-1a. As to the kind of experiment: Induction of apoptosis in human KG1a cells assessed as early apoptotic cells at 10 uM after 16 hrs by annexin V-FITC/propidium iodide staining-based flow cytometric method (reference value: 0.113%). The test is classed as functional.
Test [10] has as its system KG-1a. As to the kind of experiment: Induction of apoptosis in human KG1a cells assessed as early apoptotic cells at 20 uM after 16 hrs by annexin V-FITC/propidium iodide staining-based flow cytometric method (reference value: 0.113%). The test is classed as functional.

Bounds are passed on as bounds.

For the compound `C=C1C(=O)O[C@H]2[C@H]1CC/C(C(=O)N1CCCCC1)=C\CC[C@@]1(C)O[C@@H]21`, the IC50 with KG-1a [1] came to 3.2 µM; in the test on HL-60 it was 1.8 µM.

As to `C=C1C(=O)O[C@H]2[C@H]1CC/C(COC(=O)c1cccs1)=C\CC[C@@]1(C)O[C@@H]21`, the IC50 in the test on KG-1a [1] was found to be 3.9 µM; in the test with HL-60, 1.7 µM.

In the case of `C=C1C(=O)O[C@H]2[C@H]1CC/C(C(=O)N1CCN(C(=O)OC(C)(C)C)CC1)=C\CC[C@@]1(C)O[C@@H]21`, the IC50 in the test with KG-1a [1] amounted to 1.7 µM; with HL-60 it was 5.1 µM.

With `C=C1C(=O)O[C@H]2[C@H]1CC/C(C(=O)N(CC)CC)=C\CC[C@@]1(C)O[C@@H]21`, the IC50 with KG-1a [1] worked out at 4.3 µM; in the test with HL-60, 2.7 µM.

Regarding `C=C1C(=O)O[C@H]2[C@H]1CC/C(COC)=C\CC[C@@]1(C)O[C@@H]21`, the IC50 in the test on KG-1a [1] is 2.4 µM; with HL-60, 7.7 µM.

As for `C=C1C(=O)O[C@H]2[C@H]1CC/C(CO)=C\CC[C@@]1(C)O[C@@H]21`, the 50% inhibitory concentration (IC50) in the test on KG-1a [1] worked out at 6.8 µM; in the test on HL-60, 10.3 µM.

Turning to `COc1cccc2c1C(=O)c1c(O)c3c(c(O)c1C2=O)C[C@@](O)(C(=O)CO)C[C@@H]3O[C@H]1C[C@H](N)[C@H](O)[C@H](C)O1.Cl` [DOXORUBICIN HYDROCHLORIDE], the IC50 came out at 0.08 µM in the test with KG-1a [1] and 0.019 µM in the test with HL-60. Besides, the “Ratio IC50” value in test [2] is reported as 4.

Regarding `C=C1C(=O)O[C@H]2[C@H]1CC/C(COC(=O)c1ccc(C(F)(F)F)cc1)=C\CC[C@@]1(C)O[C@@H]21`, the IC50 in the test on KG-1a [1] is 4 µM; with HL-60, 2.3 µM.

Take `C=C1C(=O)O[C@H]2[C@H]1CC/C(COC(=O)c1ccccc1)=C\CC[C@@]1(C)O[C@@H]21`: the values for the IC50 with KG-1a [1] and in the test with HL-60 were 3.3 µM and 2.4 µM, respectively.

Regarding `C=C1C(=O)O[C@H]2[C@H]1CC/C(COC(=O)CCCCCC)=C\CC[C@@]1(C)O[C@@H]21`, the figures for the IC50 with KG-1a [1] and in the test on HL-60 were 5.8 µM and 6 µM, respectively.

As for `C=C1C(=O)O[C@H]2[C@H]1CC/C(C(=O)OCc1ccc(C(F)(F)F)cc1)=C\CC[C@@]1(C)O[C@@H]21`, the values for the IC50 in the test with KG-1a [1] and with HL-60 were 2 µM and 1 µM, respectively.

On to `C=C1C(=O)O[C@H]2[C@H]1CC/C(C(=O)N(CCC)CCC)=C\CC[C@@]1(C)O[C@@H]21`, for which the IC50 in the test with KG-1a [1] was determined as 2 µM; with HL-60, 1 µM.

Regarding `C=C1C(=O)O[C@H]2[C@H]1CC/C(C=O)=C\CC[C@@]1(C)O[C@@H]21`, the IC50 worked out at 6.3 µM in the test with KG-1a [1] and 9.9 µM in the test with HL-60.

On to `C=C1C(=O)O[C@H]2[C@H]1CC/C(C(=O)OCc1ccccc1)=C\CC[C@@]1(C)O[C@@H]21`, for which the IC50 in the test on KG-1a [1] was 3.3 µM; in the test with HL-60, 2.2 µM.

Consider `C=C1C(=O)O[C@H]2[C@H]1CC/C(C(=O)N1CCC(c3ccccc3)CC1)=C\CC[C@@]1(C)O[C@@H]21`, for which the IC50 in the test with KG-1a [1] and in the test on HL-60 was 2.2 µM in each case.

Regarding `C=C1C(=O)O[C@H]2[C@H]1CC/C(C(=O)N1CCN(C(=O)/C3=C/CC[C@@]4(C)O[C@H]4[C@H]4OC(=O)C(=C)[C@@H]4CC3)CC1)=C\CC[C@@]1(C)O[C@@H]21`, the IC50 with KG-1a [1] and with HL-60 was over 50 µM in each case.

Turning to `C=C1C(=O)O[C@H]2[C@H]1CC/C(COCc1ccc(C(F)(F)F)cc1)=C\CC[C@@]1(C)O[C@@H]21`, the IC50 in the test with KG-1a [1] was 2.4 µM; with HL-60, 1.9 µM.

In the case of `C=C1C(=O)O[C@H]2[C@H]1CC/C(C(=O)N(C)C)=C\CC[C@@]1(C)O[C@@H]21`, the IC50 came out at 6.1 µM in the test on KG-1a [1] and 1.3 µM in the test on HL-60.

Take `C=C1C(=O)O[C@H]2[C@H]1CC/C(COC(=O)c1ccc(OC)cc1)=C\CC[C@@]1(C)O[C@@H]21`: the IC50 was found to be 5.3 µM in the test on KG-1a [1] and 2.1 µM in the test with HL-60.

For the compound `C=C1C(=O)O[C@H]2[C@H]1CC/C(COC(=O)C1CCCCC1)=C\CC[C@@]1(C)O[C@@H]21`, the IC50 was found to be 8.6 µM in the test on KG-1a [1] and 6.7 µM with HL-60.

`C=C1C(=O)O[C@H]2[C@H]1CC/C(COC(=O)c1ccccc1C#N)=C\CC[C@@]1(C)O[C@@H]21`: the IC50 came out at 3.3 µM in the test on KG-1a [1] and 1.2 µM in the test on HL-60.

On to `C=C1C(=O)O[C@H]2[C@H]1CC/C(C(=O)N1CCNCC1)=C\CC[C@@]1(C)O[C@@H]21`, for which the IC50 in the test with KG-1a [1] and in the test with HL-60 was over 50 µM in each case.

`C=C1C(=O)O[C@H]2[C@H]1CC/C(C(=O)N(CCCC)CCCC)=C\CC[C@@]1(C)O[C@@H]21`: the IC50 with KG-1a [1] was 1.4 µM; with HL-60, 3.7 µM.

For `C=C1C(=O)O[C@H]2[C@H]1CC/C(C(=O)N1CCC(C)CC1)=C\CC[C@@]1(C)O[C@@H]21`, the IC50 was 1.6 µM in the test with KG-1a [1] and 6.3 µM in the test with HL-60.

Turning to `C=C1C(=O)O[C@H]2[C@H]1CC/C(COCc1ccccc1)=C\CC[C@@]1(C)O[C@@H]21`, the IC50 in the test with KG-1a [1] stood at 4.8 µM; in the test on HL-60 it was 3.5 µM.

With `C=C1C(=O)O[C@H]2[C@H]1CC/C(C(=O)OC)=C\CC[C@@]1(C)O[C@@H]21`, the IC50 with KG-1a [1] turned out to be 5.4 µM; in the test with HL-60, 4.9 µM.

On to `C=C1C(=O)O[C@H]2[C@H]1CC/C(COC(=O)/C=C/C)=C\CC[C@@]1(C)O[C@@H]21`, for which the IC50 in the test on KG-1a [1] stood at 5.1 µM; in the test on HL-60, 4.6 µM.

Consider `C=C1C(=O)O[C@H]2[C@H]1CC/C(C(=O)N1CCCC1)=C\CC[C@@]1(C)O[C@@H]21`, for which the IC50 in the test with KG-1a [1] was determined as 1.8 µM; in the test with HL-60, 4 µM.

Turning to `C=C1C(=O)O[C@H]2[C@H]1CC/C(C(=O)N1CCOCC1)=C\CC[C@@]1(C)O[C@@H]21`, the concentration for half-maximal inhibition (IC50) is 29.9 µM with KG-1a [1] and 3.9 µM with HL-60.

For the compound `C=C1C(=O)O[C@H]2[C@H]1CC/C(COC(=O)c1ccc(C#N)cc1)=C\CC[C@@]1(C)O[C@@H]21`, the IC50 with KG-1a [1] turned out to be 6.7 µM; in the test with HL-60 it was 1.7 µM.

Turning to `C=C1C(=O)O[C@H]2[C@H]1CC/C(C(=O)O)=C\CC[C@@]1(C)O[C@@H]21`, the IC50 in the test with KG-1a [1] and in the test on HL-60 was over 50 µM throughout.

For the compound `C=C1C(=O)O[C@H]2[C@H]1CC/C(COC(C)=O)=C\CC[C@@]1(C)O[C@@H]21`, the half-inhibitory concentration (IC50) with KG-1a [1] came out at 6.3 µM; in the test with HL-60 it was 2.8 µM.

For the compound `C=C1C(=O)O[C@H]2[C@H]1CC/C(COCc1ccc(OC)cc1)=C\CC[C@@]1(C)O[C@@H]21`, the IC50 with KG-1a [1] was found to be 1.1 µM; in the test on HL-60 it was 2.7 µM.

In the case of `C=C1C(=O)O[C@@H]2C3O[C@]3(C)CC/C=C(\C)CC[C@@H]12` (some centres undefined), the viability at 20 µM in the test with KG-1a [3] came out at 84.7%. The IC50 in the test on KG-1a [1] worked out at 3.5 µM; in the test on HL-60 it was 4.2 µM. The Activity came to 4.08% in the test on KG-1a [4]; 1.81% in the test with KG-1a [6]; 0.327% with KG-1a [7]; 13.1% in the test with KG-1a [8]; 0.413% in the test with KG-1a [9]; 0.336% in the test on KG-1a [10]. For the same compound, the viability at 10 µM with KG-1a [5] stood at 95.2%.

As to `C=C1C(=O)O[C@H]2[C@H]1CC/C(COC(=O)/C=C/c1ccccc1)=C\CC[C@@]1(C)O[C@@H]21`, in the test with KG-1a [3], the viability at 20 µM amounted to 51.6%. The IC50 in the test with KG-1a [1] turned out to be 0.4 µM; with HL-60, 1.1 µM. The Activity with KG-1a [4] turned out to be 22.7%; with KG-1a [6], 1.61%; in the test with KG-1a [7] it was 1.37%; in the test with KG-1a [8] it was 46.7%; in the test with KG-1a [9], 0.381%; in the test on KG-1a [10], 0.087%. In addition, in the test on KG-1a [5], the viability at 10 µM stood at 75.6%.

For the compound `C=C1C(=O)O[C@H]2[C@H]1CC/C(c1nc3ccccc3s1)=C\CC[C@@]1(C)O[C@@H]21`, the figures for the IC50 in the test with KG-1a [1] and in the test on HL-60 were 5.1 µM and 8.2 µM, respectively.

Broadly, the IC50 is the concentration at which inhibition is half-maximal.
